We go through 29 compounds from US20230416256A1, “SMALL MOLECULE INHIBITORS OF NF-kB INDUCING KINASE” (Janssen Pharmaceutica NV, priority 2020, published 2023).

As a reminder, the pIC50 is the negative decadic logarithm of the IC50, by convention in mol/L.

The target in assay [1] is recombinant human NF-kappaB-inducing kinase (NIK/MAP3K14) (Homo sapiens, UniProt Q99558). The assay is described as follows: Inhibition of auto-phosphorylation of recombinant human NIK/MAP3K14 activity (AlphaScreen). In kind it is biochemical. The conditions noted are these: GST-tagged NIK/MAP3K14 1 nM, 5 μM ATP, 2 h at 25° C.; average of values obtained. In short, it runs like this: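 GST-tagged NIK (1 nM) auto-phosphorylated for 2 h at 25 °C with 5 μM ATP in 50 mM Tris pH 7.5, 5 mM MgCl2, 0.7% DMSO. Phospho-Ser176/180 was detected by AlphaScreen using an anti-phospho-IKK antibody. IC50 came from sigmoidal fits of % inhibition versus high (full activity) and low (no ATP) controls.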
recombinant human NF-kappaB-inducing kinase (NIK/MAP3K14), sequence (Q99558 whole entry): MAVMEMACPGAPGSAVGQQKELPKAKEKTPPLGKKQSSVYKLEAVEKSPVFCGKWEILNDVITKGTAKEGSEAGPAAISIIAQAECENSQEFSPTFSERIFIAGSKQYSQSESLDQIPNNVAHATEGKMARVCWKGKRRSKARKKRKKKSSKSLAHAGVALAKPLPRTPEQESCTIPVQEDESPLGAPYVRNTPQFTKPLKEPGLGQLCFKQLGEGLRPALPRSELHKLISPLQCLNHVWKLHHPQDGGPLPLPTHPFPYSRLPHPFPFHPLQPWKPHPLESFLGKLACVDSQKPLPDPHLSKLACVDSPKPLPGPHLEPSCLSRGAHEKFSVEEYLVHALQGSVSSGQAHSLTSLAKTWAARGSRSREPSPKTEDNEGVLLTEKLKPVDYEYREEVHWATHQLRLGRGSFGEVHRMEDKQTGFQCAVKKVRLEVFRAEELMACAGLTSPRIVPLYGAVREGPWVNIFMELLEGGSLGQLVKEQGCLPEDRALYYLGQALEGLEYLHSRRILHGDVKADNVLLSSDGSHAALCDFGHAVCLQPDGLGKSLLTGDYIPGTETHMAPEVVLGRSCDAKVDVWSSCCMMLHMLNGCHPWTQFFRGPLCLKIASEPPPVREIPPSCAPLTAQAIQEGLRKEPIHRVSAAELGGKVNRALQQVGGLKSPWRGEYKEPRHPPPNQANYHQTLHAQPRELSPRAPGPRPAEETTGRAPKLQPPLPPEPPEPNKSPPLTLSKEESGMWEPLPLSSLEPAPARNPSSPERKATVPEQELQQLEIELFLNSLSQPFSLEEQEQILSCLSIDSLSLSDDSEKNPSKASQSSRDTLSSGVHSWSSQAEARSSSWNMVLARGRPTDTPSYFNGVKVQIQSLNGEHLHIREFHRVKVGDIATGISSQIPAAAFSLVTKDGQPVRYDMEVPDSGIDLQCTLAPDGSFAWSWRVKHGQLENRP

The test system of assay [2] is p-IKKα levels in L363 (NIK translocated multiple myeloma) cells. The assay is described as follows: Effect of compounds on p-IKKα levels in L363 cells (AlphaLISA SureFire Ultra). The note with it: 10 μM MG132, 6 h, average of values obtained, read-out: Assay 2 IC50. In kind it is cell-based, human. The gist of the method:
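L363 cells were BAFF-stimulated overnight (250 ng/ml) in DMEM/0.5% BSA, then exposed to an 11-point 1:3 compound series (0.3% DMSO) with BAFF and 10 μM MG132 for 6 h at 37 °C. p-IKKα (Ser176/180) was measured by AlphaLISA SureFire Ultra. IC50 was fitted from % inhibition normalized to stimulated and unstimulated controls.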
(Alpha assays give light when donor and acceptor beads are brought close together.)

The mark [3] stands for this setting: Homo sapiens, L-363, 250 ng/ml BAFF stimulated.
[4] abbreviates: Homo sapiens, L-363, 6 h, 250 ng/ml BAFF stimulated.

Molecules are shown by their SMILES. pIC50: −log10 of the molar value. Where two headings read alike, the source gives them in different places. Where only a bound is given, the exact number is not on record here.

Consider `CN1CC[C@@](O)(c2cccc(-c3nc(-c4c[nH]c5ncccc45)sc3CO)c2)C1=O` [Example 50, (R)-3-Hydroxy-3-(3-(5-(hydroxymethyl)-2-(1H-pyrrolo[2,3-b]pyridin-3-yl)thiazol-4-yl)phenyl)-1-methylpyrrolidin-2-one], for which the pIC50 in assay [1] is at least 7.00; in assay [2] (setting [3]), under 6.30.
On the same counts, the results for `CN1CC[C@@](O)(c2cccc(-c3ncc(-c4c[nH]c5ncccc45)s3)c2)C1=O` [Example 9, (R)-3-(3-(5-(1H-Pyrrolo[2,3-b]pyridin-3-yl)thiazol-2-yl)phenyl)-3-hydroxy-1-methylpyrrolidin-2-one] are 6.30 to 7.00 and under 6.30.
On the same counts, the results for `CN1CC[C@@](O)(c2cccc(-c3csc(-n4ccc5ncccc54)n3)c2)C1=O` (single isomer, unassigned) [Example 111] are 6.30 to 7.00 and under 6.30.
On the same counts, the results for `CN1CC[C@@](O)(c2cccc(-c3cc(-c4c[nH]c5ncccc45)co3)c2)C1=O` [Example 115, (R)-3-(3-(4-(1H-Pyrrolo[2,3-b]pyridin-3-yl)furan-2-yl)phenyl)-3-hydroxy-1-methylpyrrolidin-2-one] are under 6.30 and under 6.30.
For `O[C@@]1(c2cccc(-c3csc(-c4c[nH]c5ncncc45)n3)c2)CCn2ccnc21` [Example 20, (R)-7-(3-(2-(7H-Pyrrolo[2,3-d]pyrimidin-5-yl)thiazol-4-yl)phenyl)-6,7-dihydro-5H-pyrrolo[1,2-a]imidazol-7-ol], the pIC50 in assay [1] and in assay [2] (setting [4]) was at least 7.00 throughout.
On to `O[C@@]1(c2cccc(-c3csc(-c4c[nH]c5ncccc45)n3)c2)COc2cccnc21` [Example 85, (R)-3-(3-(2-(1H-Pyrrolo[2,3-b]pyridin-3-yl)thiazol-4-yl)phenyl)-2,3-dihydrofuro[3,2-b]pyridin-3-ol], for which the pIC50 in assay [1] and in assay [2] (250 ng/ml BAFF stimulated) was under 6.30 each time.
As for `CN1CC[C@@](O)(c2cccc(-c3csc(-c4c[nH]c5ncc(F)c(F)c45)n3)c2)C1=O` [Example 94, (R)-3-(3-(2-(4,5-Difluoro-1H-pyrrolo[2,3-b]pyridin-3-yl)thiazol-4-yl)phenyl)-3-hydroxy-1-methylpyrrolidin-2-one], the pIC50 in assay [1] was at least 7.00; in assay [2] (setting [3]), under 6.30.
On the same counts, the results for `CN1CC[C@@](O)(c2cccc(-n3cnc(-c4c[nH]c5ncccc45)n3)c2)C1=O` (single isomer, unassigned) [Example 121] are at least 7.00 and under 6.30.
As for `C[C@]1(O)C[C@](O)(c2cccc(-c3csc(-c4c[nH]c5ncccc45)n3)c2)c2ncccc21` (single isomer, unassigned) [Example 105], the pIC50 in assay [1] and in assay [2] (setting [4]) was under 6.30 in each case.
Regarding `CN1CC[C@@](O)(c2cccc(-c3csc(-c4c[nH]c5ncc(C#N)cc45)n3)c2)C1=O` [Example 72, (R)-3-(4-(3-(3-Hydroxy-1-methyl-2-oxopyrrolidin-3-yl)phenyl)thiazol-2-yl)-1H-pyrrolo[2,3-b]pyridine-5-carbonitrile], the figures for the pIC50 in assay [1] and in assay [2] (setting [3]) were at least 7.00 and under 6.30, respectively.
Turning to `O[C@@]1(c2cccc(-c3nc(-c4c[nH]c5nccnc45)cs3)c2)CCn2ccnc21` [Example 11, (R)-7-(3-(4-(5H-Pyrrolo[2,3-b]pyrazin-7-yl)thiazol-2-yl)phenyl)-6,7-dihydro-5H-pyrrolo[1,2-a]imidazol-7-ol], the negative logarithm of the IC50 (pIC50) in assay [1] and in assay [2] (setting [4]) was at least 7.00 in each case.
On to `Cc1cnc2[nH]cc(-c3nc(-c4cccc([C@]5(O)CCn6ccnc65)c4)cs3)c2n1` [Example 81, (R)-7-(3-(2-(2-Methyl-5H-pyrrolo[2,3-b]pyrazin-7-yl)thiazol-4-yl)phenyl)-6,7-dihydro-5H-pyrrolo[1,2-a]imidazol-7-ol], for which the pIC50 in assay [1] and in assay [2] (setting [4]) was at least 7.00 each time.
For the compound `O[C@@]1(c2cccc(-c3csc(-c4c[nH]c5ncc(F)c(F)c45)n3)c2)CCn2ccnc21` [Example 96, (R)-7-(3-(2-(4,5-Difluoro-1H-pyrrolo[2,3-b]pyridin-3-yl)thiazol-4-yl)phenyl)-6,7-dihydro-5H-pyrrolo[1,2-a]imidazol-7-ol], the results for the negative logarithm of the IC50 (pIC50) in assay [1] and in assay [2] (setting [4]) were at least 7.00 and under 6.30, respectively.
As to `Cc1[nH]c2ncccc2c1-c1nc(-c2cccc([C@]3(O)CCN(C)C3=O)c2)cs1` [Example 71, (R)-3-Hydroxy-1-methyl-3-(3-(2-(2-methyl-1H-pyrrolo[2,3-b]pyridin-3-yl)thiazol-4-yl)phenyl)pyrrolidin-2-one], the pIC50 was 6.30 to 7.00 in assay [1] and under 6.30 in assay [2] (setting [3]).
Regarding `O[C@@]1(c2cccc(-c3nc(-c4c[nH]c5ncccc45)cs3)c2)CCn2ccnc21` [Example 15, (R)-7-(3-(4-(1H-Pyrrolo[2,3-b]pyridin-3-yl)thiazol-2-yl)phenyl)-6,7-dihydro-5H-pyrrolo[1,2-a]imidazol-7-ol], the pIC50 in assay [1] was at least 7.00; in assay [2] (setting [4]), 6.30 to 7.00.
For `[2H]c1[nH]c2nccnc2c1-c1nc(-c2cccc([C@@]3(O)CCn4ccnc43)c2)cs1` [Example 18, (S)-7-(3-(2-(5H-Pyrrolo[2,3-b]pyrazin-7-yl-6-d)thiazol-4-yl)phenyl)-6,7-dihydro-5H-pyrrolo[1,2-a]imidazol-7-ol], in that order: under 6.30 and under 6.30.
For `O[C@@]1(c2cccc(-c3csc(-c4c[nH]c5ncccc45)n3)c2)CCCn2ccnc21` (single isomer, unassigned) [Example 38], in that order: at least 7.00 and at least 7.00.
For the compound `CN1CC[C@](O)(c2cccc(-c3csc(-c4c[nH]c5ncccc45)n3)c2)C1=O` (single isomer, unassigned) [Example 48], the pIC50 in assay [1] and in assay [2] (setting [3]) was under 6.30 throughout.
Take `CN1C(=O)[C@](O)(c2cccc(-c3csc(-c4c[nH]c5ncccc45)n3)c2)c2ncccc21` [Example 92, (S)-3-(3-(2-(1H-Pyrrolo[2,3-b]pyridin-3-yl)thiazol-4-yl)phenyl)-3-hydroxy-1-methyl-1,3-dihydro-2H-pyrrolo[3,2-b]pyridin-2-one]: the pIC50 in assay [1] was at least 7.00; in assay [2] (setting [3]), under 6.30.
Turning to `Cc1ccc2c(-c3nc(-c4cccc([C@]5(O)CCN(C)C5=O)c4)cs3)c[nH]c2n1` [Example 73, (R)-3-Hydroxy-1-methyl-3-(3-(2-(6-methyl-1H-pyrrolo[2,3-b]pyridin-3-yl)thiazol-4-yl)phenyl)pyrrolidin-2-one], the pIC50 in assay [1] is at least 7.00; in assay [2] (setting [3]) it was under 6.30.
For `O[C@@]1(c2cccc(-c3csc(-c4c[nH]c5nccnc45)n3)c2)CCn2ccnc21` [Example 41, (R)-7-(3-(2-(5H-Pyrrolo[2,3-b]pyrazin-7-yl)thiazol-4-yl)phenyl)-6,7-dihydro-5H-pyrrolo[1,2-a]imidazol-7-ol], the pIC50 in assay [1] and in assay [2] (setting [4]) was at least 7.00 throughout.
As to `CN1CC[C@@](O)(c2cccc(-c3nc(-c4c[nH]c5ncccc45)sc3C#N)c2)C1=O` [Example 98, (R)-4-(3-(3-Hydroxy-1-methyl-2-oxopyrrolidin-3-yl)phenyl)-2-(1H-pyrrolo[2,3-b]pyridin-3-yl)thiazole-5-carbonitrile], the negative-log IC50 (pIC50) in assay [1] and in assay [2] (setting [3]) was under 6.30 each time.
As for `C[C@@](O)(c1cccc(-c2csc(-c3c[nH]c4nccnc34)n2)c1)c1ncc[nH]1` (single isomer, unassigned) [Example 77], the negative logarithm of the IC50 (pIC50) in assay [1] and in assay [2] (setting [4]) was under 6.30 throughout.
For `CN1C[C@](O)(c2cccc(-c3csc(-c4c[nH]c5nccnc45)n3)c2)C1=O` [Example 46, (R)-3-(3-(2-(5H-Pyrrolo[2,3-b]pyrazin-7-yl)thiazol-4-yl)phenyl)-3-hydroxy-1-methylazetidin-2-one], the negative logarithm of the IC50 (pIC50) in assay [1] and in assay [2] (setting [3]) was under 6.30 in each case.
Take `Cc1cnc2[nH]cc(-c3nc(-c4cccc([C@@]5(O)CCn6ccnc65)c4)cs3)c2n1` [Example 82, (S)-7-(3-(2-(2-Methyl-5H-pyrrolo[2,3-b]pyrazin-7-yl)thiazol-4-yl)phenyl)-6,7-dihydro-5H-pyrrolo[1,2-a]imidazol-7-ol]: the pIC50 in assay [1] was 6.30 to 7.00; in assay [2] (setting [4]), under 6.30.
For the compound `CN1CC[C@@](O)(c2cccc(-n3ncc(-c4c[nH]c5ncccc45)n3)c2)C1=O` (single isomer, unassigned) [Example 109], the negative logarithm of the IC50 (pIC50) in assay [1] is at least 7.00; in assay [2] (setting [3]), under 6.30.
For `CN1CC[C@@](O)(c2cccc(-c3nc(-c4c(F)[nH]c5ncccc45)cs3)c2)C1=O` [Example 56, (R)-3-(3-(4-(2-Fluoro-1H-pyrrolo[2,3-b]pyridin-3-yl)thiazol-2-yl)phenyl)-3-hydroxy-1-methylpyrrolidin-2-one], in that order: 6.30 to 7.00 and under 6.30.
For `CN1CC[C@@](O)(c2cccc(-c3cc(-c4c[nH]c5ncccc45)[nH]n3)c2)C1=O` [Example 117, (R)-3-(3-(5-(1H-Pyrrolo[2,3-b]pyridin-3-yl)-1H-pyrazol-3-yl)phenyl)-3-hydroxy-1-methylpyrrolidin-2-one], in that order: 6.30 to 7.00 and under 6.30.
On the same counts, the results for `O=C1Nc2cccnc2[C@]1(O)c1cccc(-c2csc(-c3c[nH]c4ncccc34)n2)c1` (single isomer, unassigned) [Example 89] are under 6.30 and under 6.30.
